Literature values, collected in patent US20250275948A1, “(N-[4-(2,3-DIHYDRO-1H-INDEN-5-YL)-1,3-THIAZOL-2-YL]-2-[4-METHYL-4-(NAPHTHALEN-2-YL)-2,5-DIOXOIMIDAZOLIDIN-1-YL]ACETAMIDE AS STABILIZER OF CLOCK:BMAL1 INTERACTION FOR THE TREATMENT OF CIRCADIAN RHYTHM DISEASES AND DISORDERS” (KOC UNIVERSITESI, priority 2022, published 2025).

Assays:
Conditions in all cases: cited from earlier work
REV-ERB = system: REV-ERB
CRYs = system: CRYs
gluconeogenesis = system: gluconeogenesis

SMILES | effect on REV-ERB repressor function (REV-ERB) | effect on stability of CRYs (CRYs) | effect on gluconeogenesis (gluconeogenesis)
CC(C)(C)OC(=O)CN(Cc1ccc(Cl)cc1)Cc1ccc([N+](=O)[O-])s1 [GSK4112] | enhance REV-ERB's repressor function toward Bmal1 transcription |  | 
CS(=O)(=O)N(Cc1ccco1)CC(O)Cn1c2ccccc2c2ccccc21 (stereo not drawn) [KL001] |  | increases stability of the CRYs | suppresses the gluconeogenesis
